What was measured:
[1] = diabetes induced (Wolffenbuttel 1998); cited from earlier work
[2] = target: T1, AGE-BSA (Bos taurus, UniProt P02769); assay: In-vitro screening for AGE-breaking activity (AGE-BSA incubated with compound; ELISA / gel permeation chromatography); type: biochemical, bovine; details: 37° C., 24 hours
T1 construct: Bovine serum albumin (fraction V) (BSA); from tissue; host or cells: bovine serum (fraction V); own knowledge: fraction V is the albumin fraction of plasma/serum
Procedure: Fluorescence was used as the criteria to monitor the increased AGE formation.
160 mg/ml of protein, bovine serum albumin, BSA and 1.6M glucose sugar were dissolved in phosphate buffered saline, PBS. Sodium azide was added at 0.02% concentration as a preservative. The solution was filtered asceptically through a […] filter and kept for aging at 37° C. for 16 weeks. After 16 weeks the solution was dialyzed against PBS, aliquoted and stored at −20° C.
To determine the AGE breaking activity, 10 μg/ml of the 16 weeks AGE-BSA was incubated with different concentrations of the test compounds at 37° C. for 24 hours and AGE breaking activity of the test compounds by ELISA was determined.
• 1. Different concentrations of 16 weeks AGE-BSA were coated on a microtiter plate as standard. Each concentration is coated in triplicates. • 2. The test samples were coated on microtiter plate at a concentration of 5 ng. to 20 ng per well in triplicates. • 3. The plate was incubated at 37° C. for one hour. • 4. After incubation the plate was washed with PBST (PBS with 0.05% Tween 20). • 5. Blocking with 5% skimmed milk in PBS at 37° C. for one hour was done. • 6. The plate was washed with PBST. • 7. Primary antibody against AGE-BSA was added and the plate is incubated at 37° C. for one hour. • 8. The plate was washed with PBST. • 9. Secondary antibody anti rabbit HRPO (Horse-Radish Per Oxidase) conjugate was added and the plate is incubated at 37° C. for one hour. • 10. The plate was washed with PBST. • 11. Colour development with OPD (orthophenylenediamine dihydrochloride) and hydrogen peroxide was done. • 12. OD (optical density) at (450 nm reading –620 nm reading) was measured after incubation at 37° C. for 15 minutes with Microplate ELISA Reader.
The breaker activity of the compounds were determined by the following formula:
[formula] OD450-620Control=Absorbance of 20 ng AGE-BSA after incubation at 37° C. for 24 hours without test compound. OD450-620Test=Absorbance of 20 ng AGE-BSA after incubation at 37° C. for 24 hours with required concentration of test compound.
Gel Permeation Chromatography based method was used to determine AGE breaking activities of the compounds.
Separation by Gel Permeation Chromatography (GPC) depends on differences in the size, more precisely the hydrodynamic volume, of the proteins in a sample. […] The pores of a column particle are differentially accessible to smaller particles, depending on their size. This volume of the column is called (V1). The total accessible volume (Vt) is the sum of the volume outside the particles (V0) and the volume accessible inside the particles (V1): Vt=V0+Vi Therefore, in a typical Gel Permeation Chromatography (GPC) run, high molecular weight molecules elute at a lower retention time whereas lower molecular weight molecules are retained for longer time. For the purpose of quantification, the area under the curve for the respective molecule is recorded. The same principle has been applied in the in vitro screening of the molecules of instant invention. Highly cross-linked Advanced Glycosylated Endproducts (AGE) were prepared in vitro by incubating Bovine Serum Albumin (BSA) with glucose for a period of 16 weeks. […] The reduction in the area of AGE-BSA incubated in the presence of AGE breaker as compared to that of control AGE BSA (incubated in absence of AGE breaker) gives an estimate of the AGE breaker activity of the drug. In order to check the non-specific activity of the molecule, a similar experiment was repeated with BSA as well. Methodology:
A known concentration of 16-week AGE-BSA was incubated with and without a predetermined concentration of the drug at 37° C. for 24 hours in clean transparent glass test tubes. The solution without drug served as the control and the solution containing the drug was treated as the test sample.
Gel permeation chromatography was performed on equal volumes of control AGE-BSA preparation and solution of AGE-BSA treated with drug. […]

[3] = tested on: Maillard reaction in-vitro (BSA, ribose); assay: Test for AGE inhibiting activity (Maillard reaction in-vitro, BSA + ribose, fluorescence); type: biochemical, bovine; details: 37° C., 7 days
Procedure: The following method was used to determine the inhibitory effect of the test compounds on Maillard reaction in-vitro. This method is adopted from U.S. Pat. No. 5,514,676 and European Patent No. 0 339 496 A2.
A solution of Bovine Serum Albumin (BSA), ribose and test compound was prepared in Phosphate Buffer Saline (PBS, pH 7.4) so as to have final concentration of BSA and ribose at 10 mg/ml and 500 mM respectively. Addition of compound was done in aseptic conditions. Sodium azide (0.02%) was also added in this solution in order to prevent microbial growth. A separate tube containing BSA, ribose and sodium azide in the same concentration and buffer as above, but without any test compound, was also incubated as positive control. After incubation at 37° C. for 7 days, 40 micro liter sample from each tube was removed and diluted with PBS to have final concentration of BSA at 1 mg/ml. The fluorescence of all the samples was measured at Excitation Maximum of […] and the Emission Maximum of […] using f-MAX Fluorimeter (Molecular Device, USA). In order to study the effect of test compound on fluorescence, freshly prepared compound solution was mixed with previously incubated positive control (i.e. BSA+ribose), so as to achieve same concentration of all the components as that of test samples.
The percent inhibition of test compound was measured as follows:
[formula] Where F3=Fluorescence of BSA+ribose+compound, F4 is fluorescence of incubated (BSA+ribose)+freshly added test compound.

[4] = Free radical scavenging activity on ABTS radical cation; type: biochemical
Procedure: This method measures the relative ability of free radical scavenging substances to scavenge the ABTS.^+ i.e. 2,2-Azino-bis-(3-ethyl benzo thiazoline-6-sulfonate) radical cation as compared to a standard amount of standard or free radical scavengers antioxidants. Incubation of ABTS with Peroxidase (metmyoglobin) and hydrogen peroxide results in the production of radical cation ABTS.^+. This species is blue-green in colour and can be detected at 730 nm. Antioxidants or free radical scavengers in the added sample that causes suppression of the color to a degree that is proportional to their concentration.
Preparation of Buffer Solutions: • a. Phosphate Citrate Buffer (pH 5.0): 48.5 ml of 0.1M citric acid with sufficient 0.2M disodium hydrogen phosphate to produce 100 ml. • b. Phosphate Buffer Saline (PBS): Dissolve 40.0 g of NaCl, 1.0 g of KCl, 1.0 g of KH2PO4 and 3.05 g of Na2HPO4 in 1 liter milli-Q water. Dilute 200 ml of above solution to 1 liter with milli-Q water (pH 7.4–7.6).
Preparation of ABTS Stock Solution (2 mM): • 1 tablet (10 mg) was dissolved in phosphate citrate buffer (pH 5.0) to give a 2 mM solution.
Preparation of Horse Radish Peroxidase Working Solution: • 0.1 mg was dissolved in 10 ml of phosphate buffer saline, 1 ml of this solution was diluted to 100 ml with PBS.
Preparation of Hydrogen Peroxide (1.08 mM) Solution: • 12 μl of Hydrogen Peroxide (30% w/v) was diluted to 100 ml with PBS.
Preparation of Drug Solutions: • 0.1 mM of stock solution of the drug was prepared which was serially diluted in PBS to get 0.05 mM, 0.025 mM and 0.0125 mM solutions.
Preparation of ABTS Radical Stock Solution: • To 2 ml of ABTS stock solution, 1 ml of horseradish Peroxidase working solution was added. • As soon as 2 ml of Hydrogen peroxide solution was added to the above solution, blue-green colour of the ABTS radicals appeared. This solution was incubated at 30° C. for 30 min in order to ensure the completion reaction. Make up the volume to 10 ml with PBS.
Preparation of Control Solution: • 900 μl of ABTS radical stock solution were added to an eppendorf tube. To it were added 100 μl of PBS solution.
Preparation of Test Solution: • 900 μl of ABTS radical stock solutions were added to different eppendorf tubes. To it were added 100 μl of various concentrations of drug solution.
Measurement of Absorbance (O.D): • The absorbance of control and test samples was recorded immediately at 730 nm taking PBS as blank.
Calculation: • The percent antioxidant activity was calculated according to the formula: % Antioxidant activity=100−[O.D of test sample/O.D of control×100]

[5] = tested on: AGE derived protein cross links; details: Vasan et al. Nature 1996; U.S. Pat. No. 5,853,703; cited from earlier work

T1 sequence (P02769 25-607): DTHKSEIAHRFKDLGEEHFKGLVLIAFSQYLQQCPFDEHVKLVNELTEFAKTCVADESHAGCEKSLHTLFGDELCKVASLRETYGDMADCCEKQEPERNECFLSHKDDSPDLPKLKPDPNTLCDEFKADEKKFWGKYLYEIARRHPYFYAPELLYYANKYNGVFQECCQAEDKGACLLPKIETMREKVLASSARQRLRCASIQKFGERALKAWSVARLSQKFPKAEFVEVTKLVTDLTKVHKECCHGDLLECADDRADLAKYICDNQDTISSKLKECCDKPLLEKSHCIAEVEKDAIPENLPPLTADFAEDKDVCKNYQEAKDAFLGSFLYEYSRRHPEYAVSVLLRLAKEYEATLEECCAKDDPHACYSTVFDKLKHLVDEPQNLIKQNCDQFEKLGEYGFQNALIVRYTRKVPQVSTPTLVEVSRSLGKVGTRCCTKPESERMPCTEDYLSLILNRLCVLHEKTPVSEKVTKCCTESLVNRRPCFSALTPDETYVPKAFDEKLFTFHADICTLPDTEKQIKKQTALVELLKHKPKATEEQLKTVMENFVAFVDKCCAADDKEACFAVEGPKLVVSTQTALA

Row | Compound | arterial stiffness and arterial compliance [1] | % Breakage ([2]; 5 mM compound) | % Inhibition (Day 7) ([3]; 5 mM compound) | Relative Free Radical Scavenging Activity (%) on ABTS ([4]; 12.5 μM) | Relative Free Radical Scavenging Activity (%) on ABTS ([4]; 25.0 μM) | Relative Free Radical Scavenging Activity (%) on ABTS ([4]; 50.0 μM) | Relative Free Radical Scavenging Activity (%) on ABTS ([4]; 100.0 μM) | % Breakage ([2]; 10 mM compound) | % Inhibition (Day 7) ([3]; 2.5 mM compound) | cleavage of AGE derived protein cross links [5]
1 | Cc1sc[n+](CC(=O)c2ccccc2)c1C.[Cl-] [ALT-711] | reverse diabetes induced increase of arterial stiffness and improve arterial compliance |  |  |  |  |  |  |  |  | 
2 | Cc1cc(C)n(Cc2cc(-c3ccc[n+](CC(=O)c4ccc(C)s4)c3)[nH]n2)n1.[Cl-] [Compound 18, 1-(2-(5-Methyl-2-thienyl)-2-oxoethyl)-3-[(3,-(3,5-dimethylpyrazol-1-yl)methyl)pyrazol-5-yl]pyridinium chloride] |  | 52.97% | 79% | 28.65% | 53.8% | 84.41% | 95.32% |  |  | 
3 | O=C(C[n+]1cccc(-c2cc(Cc3ccccc3)nn2-c2ccccc2)c1)c1ccccc1.[Cl-] [Compound 19, 1-(2-Phenyl-2-oxoethyl)-3-[(1-phenyl-3-phenylmethyl)pyrazol-5-yl]pyridinium chloride] |  |  | 64.23% | 8.37% | 19.42% | 37.62% | 55.18% | 91.22% |  | 
4 | O=C(C[n+]1cccc(-c2cc(CCC3CCCCC3)n[nH]2)c1)c1ccccc1.[Cl-] [Compound 22] |  |  |  | 22.52% | 29.52% | 30.31% | 31.40% | 100.00% | 51% | 
5 | O=C(C[n+]1cccc(-c2cc(COc3ccccc3)n[nH]2)c1)c1cccs1.[Cl-] [Compound 24, 1-(2-Thien-2′-yl-2-oxoethyl)-3-[(3-phenoxymethyl)pyrazol-5-yl]pyridinium chloride] |  |  | 82.5% | 43.66% | 74.64% | 83.24% | 90.12% | 97.72% |  | 
6 | Cc1cc(C)n(Cc2cc(-c3ccc[n+](CC(=O)c4ccccc4)c3)n(-c3ccccc3)n2)n1.[Br-] [Compound 26] |  |  | 61.45% | 21.18% | 34.22% | 41.66% | 75.27% | 42.37% |  | 
7 | O=C(C[n+]1cccc(-c2cc(COc3ccccc3)nn2-c2ccccc2)c1)c1ccccc1.[Cl-] [Compound 34, 1-(2-Phenyl-2-oxoethyl)-3-[(1-phenyl-3-phenoxymethyl)pyrazol-5-yl]pyridinium chloride] |  |  | 60% | 13.2% | 19.08% | 26.39% | 29.40% | 100.0% |  | 
8 | O=C(C[n+]1ccsc1)c1ccccc1.[Br-] [N-phenacyl thiazolium bromide] |  |  |  |  |  |  |  |  |  | cleaves covalent, AGE derived protein cross links

Reference: patent publication US7223777B2, “Compounds for the management of aging-related and diabetic vascular complications, process for their preparation, therapeutic and cosmetic uses thereof” (Torrent Pharmaceuticals Ltd., priority 2001, dated 2007)
